In patent publication US8680100B2, “Sulfonylhydrazide compounds for treating proliferative disorders” (Synta Pharmaceuticals Corp., priority 2008, dated 2014):

Test system: HSP70
Test: Hsp70 Activity Essay (HSP70 ELISA on lysates of MDA435 cells)
Format: cell-based
Conditions: concentration that increases HSP70 to 50% of maximum increase by N′1,N′3-dimethyl-N′1,N′3-di(phenylcarbonothioyl)malonohydrazide
Protocol: Each well was plated with MDA435 cells using DMEM 10% FBS Phenol-red free medium 2.5 k/well and incubated in a 37° C./5% CO2 incubator for a minimum of 6 hours to obtain good cell adherence.
Dilutions of each test compound were prepared in DMSO and DMEM 10% FBS Phenol-red free medium. The final concentration in each well was 1250 nM, 125 nM, 12.5 nM or 1.25 nM of test compound and 0.25% DMSO. 0.25% DMSO was used as a negative control. Lysis buffer (any lysis buffer suitable for use in the Assay Designs kit, e.g., such as that described in the kit instructions) was then added (amount used is one quarter of the volume already present in each plate) and the mixtures were then shaken for 10 minutes.
150 μL of “Can Get Signal” Immunoreaction Enhancer Solution (Solution 1 for primary antibody, TOYOBO, Catalogue No. NKB-101) were added to each of a series of ELISA plates. The ELISA plates were obtained from the HSP70 ELISA Kit (catalogue number EKS-700B) purchased from Assay Designs (Ann Arbor, Mich.). After the cells were lysed, 50 μL of lysate were taken from each well and added to an ELISA plate, resulting in a 4 fold dilution of the lysate (50 μL of lysate and 150 μL of Can Get Signal solution). The plates were covered with adhesive tape and incubated overnight at 4° C.;
In the morning, the liquid was aspirated from all wells and 400 μL of Washing Buffer made from 20× concentrate provided in the ELISA Kit and distilled water were added and then removed by aspiration. The addition of Washing Buffer and aspiration was repeated four times. After the fourth wash, the plate were inverted to a paper towel and carefully patted dry. 100 μL of HSP70 antibody provided in ELISA Kit were added to each well. Each well was covered with adhesive tape and incubated for one hour at room temperature. Washing Buffer was then added followed by removal with aspiration. The addition of Washing Buffer and aspiration was repeated four times, after which the plates were inverted and patted dry. 100 μL of HSP70 conjugate (provided in the ELISA Kit) were added to the wells. Each well was then covered with adhesive tape and incubated for one hour at room temperature. Washing Buffer was then added followed by removal with aspiration. The addition of Washing Buffer and aspiration was repeated four times, after which the plates were inverted and patted dry.
100 μL of the TMB Substrate (obtained from the ELISA Kit) were added to the wells (color development was visible in 1 minute). The wells were incubated until saturated color development (usually 5-15 minutes). Stop Solution 2 (provided in the ELISA Kit) was added in the same order TMB Substrate was added. The OD450 was then obtained using a plate reader. The EC50 for the compounds was calculated using N′^1,N′^3-dimethyl-N′^1,N′^3-di(phenylcarbonothioyl)malonohydrazide on the same plate as a control (concentration that increases HSP70 to 50% of maximum increase by N′^1,N′^3-dimethyl-N′^1,N′^3-di(phenylcarbonothioyl)malonohydrazide). The EC50 for each of the compounds tested is shown in example 1.

Row | SMILES | EC50 [nM]
1 | CN(NC(=O)CS(=O)(=O)NN(C)C(=S)c1ccsc1)C(=S)c1ccccc1 [Compound 57, N′-methyl-2-(2-methyl-2-(phenylcarbonothioyl)hydrazinyl)-2-oxo-N′-(thiophene-3-carbonothioyl)ethanesulfono-hydrazide] | 77
2 | CN(NC(=O)CS(=O)(=O)NN(C)C(=S)c1ccccc1)C(=S)c1ccsc1 [Compound 58, N′-methyl-2-(2-methyl-2-(thiophene-3-carbonothioyl)hydrazinyl)-2-oxo-N′-(phenylcarbonothioyl)ethane-sulfonohydrazide] | 77
3 | CN(NC(=O)CS(=O)(=O)NN(C)C(=S)c1csc2ccccc12)C(=S)c1ccccc1 [Compound 59] | 129
4 | CN(NS(=O)(=O)CC(=O)NN1CCCCC1=S)C(=S)c1ccccc1 [Compound 66, 2-(2-methyl-2-(phenylcarbonothioyl)hydrazinyl-sulfonyl)-N′-(2-thioxopiperidin-1-yl)acetamide] | 48
5 | CCN(CC)C(=S)N(C)NS(=O)(=O)CC(=O)NN(C)C(=S)c1ccccc1 [Compound 68, N,N-diethyl-1-methyl-2-(2-(2-methyl-2-(phenylcarbonothioyl)hydrazinyl)-2-oxoethylsulfonyl)hydrazine-carbothioamide] | 63
6 | CCN(CC)C(=S)N(C)NC(=O)CS(=O)(=O)NN(C)C(=S)c1ccccc1 [Compound 69, N,N′-diethyl-1-methyl-2-(2-(2-methyl-2-(phenylcarbonothioyl)hydrazinyl-sulfonyl)acetyl)hydrazine-carbothioamide] | 85
7 | CCN(CC)C(=S)N(C)NS(=O)(=O)CC(=O)NN(C)C(=S)c1cnccn1 [Compound 70, N,N′-diethyl-1-methyl-2-(2-(2-methyl-2-(pyrazine-2-carbonothioyl)hydrazinyl)-2-oxoethylsulfonyl)hydrazine-carbothioamide] | 127
8 | CN(NC(=O)CS(=O)(=O)NN(C)C(=S)C1CC1)C(=S)c1cnco1 [Compound 74, N′-(cyclopropanecarbonothioyl)-N′-methyl-2-(2-methyl-2-(oxazole-5-carbonothioyl)hydrazinyl)-2-oxoethanesulfonohydrazide] | 301
9 | CCCCN(NS(=O)(=O)CC(=O)NN(C)C(=S)c1ccccc1)C(=S)c1ccccc1 [Compound 75, N′-butyl-2-(2-methyl-2-(phenylcarbonothioyl)hydrazinyl)-2-oxo-N′-(phenylcarbonothioyl) ethanesulfonohydrazide] | 810
10 | CN(NS(=O)(=O)CC(=O)NN(C)C(=S)C1CC1)C(=S)c1cncs1 [Compound 76, 2-(2-(cyclopropanecarbonothioyl)-2-methylhydrazinyl)-N′-methyl-2-oxo-N′-(thiazole-5-carbonothioyl)-ethanesulfonohydrazide] | 1180
11 | CN(NS(=O)(=O)CC(=O)NN(C)C(=S)C1CC1)C(=S)c1cnco1 [Compound 77, 2-(2-(cyclopropanecarbonothioyl)-2-methylhydrazinyl)-N′-methyl-N′-(oxazole-5-carbonothioyl)-2-oxoethanesulfonohydrazide] | 967
12 | CN(NC(=O)CS(=O)(=O)NN(C)C(=S)c1ccccc1F)C(=S)c1ccccc1 [Compound 80, N′-(2-fluorophenylcarbonothioyl)-N′-methyl-2-(2-methyl-2-(phenylcarbonothioyl)hydrazinyl)-2-oxoethanesulfonohydrazide] | 139
13 | CN(NS(=O)(=O)CC(=O)NN(C)C(=S)c1ccccc1C(F)(F)F)C(=S)c1ccccc1 [Compound 81, N′-methyl-2-(2-methyl-2-(2-(trifluoromethyl)phenylcarbono-thioyl)hydrazinyl)-2-oxo-N′-(phenylcarbonothioyl)ethane-sulfonohydrazide] | 354
14 | CN(NS(=O)(=O)CC(=O)NN(C)C(=S)c1ccccc1F)C(=S)c1ccccc1 [Compound 82, 2-(2-(2-fluorophenylcarbonothioyl)-2-methylhydrazinyl)-N′-methyl-2-oxo-N′-(phenylcarbonothioyl)ethane-sulfonohydrazide] | 173

Other lines, results leading:

Row | EC50 [nM] | SMILES
15 | 144 | CN(NC(=O)CS(=O)(=O)NN(C)C(=S)C1CC1)C(=S)c1cccc(C(F)(F)F)n1 [Compound 84, N′-(cyclopropanecarbonothioyl)-N′-methyl-2-(2-methyl-2-(6-(trifluoromethyl)pyridine-2-carbonothioyl)hydrazinyl)-2-oxoethanesulfonohydrazide]
16 | 60 | COCC(=S)N(C)NC(=O)CS(=O)(=O)NN(C)C(=S)c1ccccc1 [Compound 85, 2-(2-(2-methoxyethanethioyl)-2-methylhydrazinyl)-N′-methyl-2-oxo-N′-(phenylcarbonothioyl)ethane-sulfonohydrazide]
17 | 21 | CC(=S)N(C)NC(=O)CS(=O)(=O)NN(C)C(=S)c1ccccc1 [Compound 86, 2-(2-ethanethioyl-2-methylhydrazinyl)-N′-methyl-2-oxo-N′-(phenylcarbonothioyl)ethane-sulfonohydrazide]
18 | 111 | CN(NC(=O)C(=CN)S(=O)(=O)NN(C)C(=S)C1CC1)C(=S)C1CC1 [Compound 87, 1-amino-N′-(cyclopropanecarbonothioyl)-3-(2-(cyclopropanecarbonothioyl)-2-methyl-hydrazinyl)-N′-methyl-3-oxoprop-1-ene-2-sulfonohydrazide]
19 | 209 | CN(C)C=C(C(=O)NN(C)C(=S)C1CC1)S(=O)(=O)NN(C)C(=S)C1CC1 [Compound 88, N′-(cyclopropanecarbonothioyl)-3-(2-(cyclopropanecarbonothioyl)-2-methylhydrazinyl)-1-(dimethylamino)-N′-methyl-3-oxoprop-1-ene-2-sulfonohydrazide]
20 | 201 | CNC=C(C(=O)NN(C)C(=S)C1CC1)S(=O)(=O)NN(C)C(=S)C1CC1 [Compound 89, N′-(cyclopropanecarbonothioyl)-3-(2-(cyclopropanecarbonothioyl)-2-methylhydrazinyl)-N′-methyl-1-(methylamino)-3-oxoprop-1-ene-2-sulfonohydrazide]
21 | 227 | CN(NC(=O)C(=CNC1CC1)S(=O)(=O)NN(C)C(=S)C1CC1)C(=S)C1CC1 [Compound 90, N′-(cyclopropanecarbonothioyl)-3-(2-(cyclopropanecarbonothioyl)-2-methylhydrazinyl)-1-(cyclopropylamino)-N′-methyl-3-oxoprop-1-ene-2-sulfonohydrazide]
22 | 229 | CC(C)NC=C(C(=O)NN(C)C(=S)C1CC1)S(=O)(=O)NN(C)C(=S)C1CC1 [Compound 91, N′-(cyclopropanecarbonothioyl)-3-(2-(cyclopropanecarbonothioyl)-2-methylhydrazinyl)-1-(isopropylamino)-N′-methyl-3-oxoprop-1-ene-2-sulfonohydrazide]
